Laboratory results as given in ChEMBL document CHEMBL5360649, “Potential Broad-Spectrum Antimicrobial, Wound Healing, and Disinfectant Cationic Peptide Crafted from Snake Venom” (J Med Chem, 2023).
One block for each compound: values may come before it. Calls of active or inactive are those of the source. No cut-off for these calls is given here. Bridge positions count the residues as written; N and C are the ends. Square brackets hold non-standard residues; d marks the D form. Peptide text beside a SMILES is read from it. * marks the point of attachment. ξ: configuration not given here. Heptanoyl(6-Me) = CC(C)CCCCC(=O)*; dDab = NCC[C@@H](N)C(=O)O; Orn = NCCC[C@H](N)C(=O)O; Dab = NCC[C@H](N)C(=O)O; ξP = O=C(O)C1CCCN1

How the values were obtained:
Rattus norvegicus = species: Rattus norvegicus; experiment: Induction of wound healing in surgically-induced Albino Wistar rat wound model inoculated with methicillin-resistant Staphylococcus aureus assessed as reduction in scarring measured after 11 days by H&E staining based analysis; format: functional; details: time 11.0 day
Cell membrane [1] = experiment: Induction of cytoplasmic membrane depolarization in Klebsiella pneumoniae assessed as increase in fluorescence intensity at 5 uM by DiSC3-5 dye based fluorescence method; format: subcellular
Cell membrane [2] = experiment: Induction of outer membrane permeabilization in methicillin-resistant Staphylococcus aureus incubated for 5 to 20 mins by fluorescence based NPN uptake assay; format: subcellular; details: time 5-20 min
Pseudomonas aeruginosa [3] = experiment: Induction of resistance development in Pseudomonas aeruginosa assessed as fold increase in MIC at 0.5 times of MIC incubated with compound for 12 hrs followed by replacement with fresh medium for 12 hrs and measured after 20 repeated cycles; format: functional, organism-based; details: time 240.0 hrs
Klebsiella pneumoniae [4] = experiment: Induction of resistance development in Klebsiella pneumoniae assessed as fold increase in MIC at 0.5 times of MIC incubated with compound for 12 hrs followed by replacement with fresh medium for 12 hrs and measured after 20 repeated cycles; format: functional; details: time 240.0 hrs
Pseudomonas aeruginosa [5] = experiment: Antibacterial activity against patient-derived Pseudomonas aeruginosa assessed as inhibition of bacterial growth at 25 to 100 uM incubated overnight by spotting assay; format: functional, organism-based; details: dose 25-100 µM
Staphylococcus aureus [6] = experiment: Antibacterial activity against patient-derived methicillin-resistant Staphylococcus aureus assessed as inhibition of bacterial growth at 25 to 100 uM incubated overnight by spotting assay; format: functional, organism-based; details: dose 25-100 µM
Klebsiella pneumoniae [7] = experiment: Antibacterial activity against Klebsiella pneumoniae ATCC BAA-1705 assessed as inhibition of bacterial growth at 25 to 100 uM incubated overnight by spotting assay; format: functional, organism-based; details: dose 25-100 µM
Escherichia coli [8] = experiment: Antibacterial activity against Escherichia coli ATCC CRM-11229 assessed as inhibition of bacterial growth at 25 to 100 uM incubated overnight by spotting assay; format: functional, organism-based; details: dose 25-100 µM
Pseudomonas aeruginosa [9] = experiment: Antibacterial activity against patient-derived Pseudomonas aeruginosa assessed as inhibition of bacterial growth incubated for 24 hrs by CLSI protocol based microdilution method; format: functional
Staphylococcus aureus [10] = experiment: Antibacterial activity against patient-derived methicillin-resistant Staphylococcus aureus assessed as inhibition of bacterial growth incubated for 24 hrs by CLSI protocol based microdilution method; format: functional
Klebsiella pneumoniae [11] = experiment: Antibacterial activity against Klebsiella pneumoniae ATCC BAA-1705 assessed as inhibition of bacterial growth incubated for 24 hrs by CLSI protocol based microdilution method; format: functional
Escherichia coli [12] = experiment: Antibacterial activity against Escherichia coli ATCC CRM-11229 assessed as inhibition of bacterial growth incubated for 24 hrs by CLSI protocol based microdilution method; format: functional

Compound: C=CN1CCCC1=O.II
- Activity (Rattus norvegicus): inactive

- Activity (Cell membrane [1]): Active
Compound: CC(C)C[C@@H]1NC(=O)[C@H](CCCN)NC(=O)[C@H](C(C)C)NC(=O)[C@@H]2CCCN2C(=O)[C@@H](Cc2ccccc2)NC(=O)[C@H](CC(C)C)NC(=O)[C@H](CCCN)NC(=O)[C@H](C(C)C)NC(=O)C2CCCN2C(=O)[C@@H](Cc2ccccc2)NC1=O (stereo partly drawn) (cyclo(L[dF]PV[Orn]L[dF][ξP]V[Orn]))

Compound: CC(C)CCCCC(=O)N[C@@H](CCN)C(=O)N[C@H](C(=O)N[C@@H](CCN)C(=O)N[C@H]1CCNC(=O)[C@H]([C@@H](C)O)NC(=O)[C@H](CCN)NC(=O)[C@H](CCN)NC(=O)[C@H](CC(C)C)NC(=O)[C@@H](Cc2ccccc2)NC(=O)[C@@H](CCN)NC1=O)[C@@H](C)O ({Heptanoyl(6-Me)}-[Dab]T[Dab][Dab][dDab][dF]L[Dab][Dab]T; lactam 4-C)
- Activity (Cell membrane [2]): Active

Compound: COLISTIN
- fold change (FC) (Pseudomonas aeruginosa [3]): 2
- fold change (FC) (Klebsiella pneumoniae [4]): 4

Compound: H-LPIIKWVKKFFWRWR-OH
- Activity (Pseudomonas aeruginosa [5]): Active
- Activity (Staphylococcus aureus [6]): Active
- Activity (Klebsiella pneumoniae [7]): Active
- Activity (Escherichia coli [8]): Active
- MIC (Pseudomonas aeruginosa [9]): 10 µM
- MIC (Staphylococcus aureus [10]): 15 µM
- MIC (Klebsiella pneumoniae [11]): 16 µM
- MIC (Escherichia coli [12]): 8 µM
